Measured values published in article PMC2634724 (British Journal of Cancer, 2009).
“And” between values parts separate entries of the source, which are not always exact repeats. Identical values can stand only once. Like-named read-outs stand apart in the source and are kept apart here.

Assays:
[1] = as a single agent; cited from earlier work
[2] = clinical; settings: human, in vivo, iv
Experimental: (§1) For everolimus, sampling was carried out predose and 1, 2, 4, 6, 12, 24, 48, 96, and 168 h after administration. Everolimus was measured in whole blood by liquid chromatography–mass spectrometry after liquid extraction, its lower limit of quantification being 0.368 ng ml^−1. […] Pharmacokinetic parameters were derived by standard non-compartmental methods of analysis (WinNonlin Pro 5.0). The measured parameters included the maximum plasma concentration (Cmax), time to reach Cmax (tmax), and the truncated area under the time–concentration curve (AUClast).

[3] = tested on: cervical cancer; design: method as in Mori et al, 2007; settings: weekly paclitaxel, cervical cancer patients; ref Mori et al, 2007; cited from earlier work
[4] = tested on: trastuzumab-resistant breast cancer; design: method as in André et al, 2008; settings: everolimus and paclitaxel with trastuzumab; population pre-treated with trastuzumab and taxanes; preliminary; ref André et al, 2008; cited from earlier work
[5] = as a single agent; no reference given; cited from earlier work
[6] = tested on: tumour models; design: method as in O'Reilly et al, 2003; settings: schedule effect, ref O'Reilly et al, 2003; cited from earlier work
[7] = tested on: patients with advanced cancers; design: method as in Tabernero et al, 2008; settings: single-agent everolimus 70 mg weekly; ref Tabernero et al, 2008; cited from earlier work
[8] = Pharmacokinetics of everolimus in whole blood (LC-MS, non-compartmental); type: in vivo, human; settings: for Tmax / Cmax / half-life: whole blood; for Cmax / half-life: mean (s.d.)
Experimental: as §1

[9] = tested on: patients with advanced solid tumours; assay: Safety and dose-limiting toxicity, NCI Common Toxicity Criteria version 2.0; settings: everolimus + paclitaxel, 16 patients
Experimental: (§2) Patients receiving at least one dose of study drug medications were evaluated weekly for safety using the National Cancer Institute Common Toxicity Criteria version 2.0. Safety assessments consisted of clinical examinations and scheduled laboratory evaluations and electrocardiograms. […] Treatment with the combination was discontinued on any grade 4 toxicity or failure to return to grade ⩽1 within 2 weeks. […] The concomitant use of any drugs that may interfere with cytochrome CYP450-3A was discouraged. […] Anti-tumour activity was assessed using Response Evaluation Criteria in Solid Tumors.
(§3) Dose-limiting toxicity was defined as occurring during the first 28-day cycle, suspected of being drug related, and included any grade 4 toxicity, any grade 3 non-haematological toxicity despite preventive therapy, or grade ⩾2 neutropenia, or thrombocytopenia failing to revert to grade ⩽1 within 2 weeks. Three patients were entered per dose level, with expansion to six patients if one of three patients experienced DLT. If DLT occurred in none of three or no more than one of six patients in dose level 1, doses would be escalated to dose level 2. Dose-limiting toxicity in more than one of three or more than two of six patients would be considered unacceptable.

[10] = tested on: S6K1; design: method as in O'Donnell et al, 2008; settings: ref O'Donnell et al, 2008, cited from earlier work
[11] = tested on: S6K1; design: method as in Tabernero et al, 2008; settings: weekly dosing (20, 50, or 70 mg), immunohistochemistry; ref Tabernero et al, 2008; cited from earlier work
[12] = tested on: patients with advanced solid tumours; settings: human, in vivo
Experimental: as §2, §3

[13] = tested on: advanced solid tumours; assay: Anti-tumour activity, Response Evaluation Criteria in Solid Tumors; type: in vivo, human
Experimental: as §2

[14] = tested on: advanced solid tumours; settings: prior docetaxel therapy in the same two patients with metastatic breast cancer; patient history; cited from earlier work
[15] = human, po, 15 mg, everolimus 15 mg oral alone, dose level 1, n=3
[16] = human, po, 30 mg, everolimus 30 mg oral alone, dose level 2, n=4
[17] = human, po, everolimus 15 mg oral with paclitaxel 80 mg m^−2, dose level 1, n=3
[18] = human, po, everolimus 30 mg oral with paclitaxel 80 mg m^−2, dose level 2, n=7
[19] = everolimus + paclitaxel, 16 patients

In the case of `CC(=O)O[C@H]1C(=O)[C@@]2(C)[C@H]([C@H](OC(=O)c3ccccc3)[C@]3(O)C[C@H](OC(=O)[C@H](O)[C@@H](NC(=O)c4ccccc4)c4ccccc4)C(C)=C1C3(C)C)[C@]1(OC(C)=O)CO[C@@H]1C[C@@H]2O` [paclitaxel], the Terminal half-life [1] is given as “about 10 h”, the Tmax [2] is given as 4.8 min and the “Time apoptosis could be induced after treatment” value [3] is given as “up to 1 week”. The “Time paclitaxel could be detected in tissue” value [3] was “up to 6 days”.
For `CO[C@H]1C[C@@H]2CC[C@@H](C)[C@@](O)(O2)C(=O)C(=O)N2CCCC[C@H]2C(=O)O[C@H]([C@H](C)C[C@@H]2CC[C@@H](OCCO)[C@H](OC)C2)CC(=O)[C@H](C)/C=C(\C)[C@@H](O)[C@@H](OC)C(=O)[C@H](C)C[C@H](C)/C=C/C=C/C=C/1C` [everolimus, Everolimus], the Rate of response [4] is given as 46%, the Terminal half-life [5] is given as “about 30 h” and the “Effect of in vivo combination with paclitaxel” value [6] is given as “additive and synergistic effects”. The Dose-limiting toxicities observed [7] was “grade 3 stomatitis, neutropenia, and hyperglycaemia”, the Tmax ([8]; everolimus 30 mg oral with paclitaxel 80 mg m^−2, dose level 2, n=7, median (range)) was 1.0 (1–4) h and the “Change in tmax, Cmax and AUClast when given in combination” value ([8]; everolimus with paclitaxel vs alone) was “no meaningful change”. The Cmax [8, 15] was 75.2 ± 37.4 ng/mL, the half-life [8, 15] was 29.5 ± 8.5 h and the Cmax [8, 16] was 93 ± 28.6 ng/mL. For the same molecule, the half-life [8, 16] was 26.9 ± 7.1 h, the Cmax [8, 17] was 57.9 ± 35.8 ng/mL and the half-life [8, 17] was 24.6 ± 3.6 h. The Cmax [8, 18] was 94.5 ± 60.1 ng/mL, the half-life [8, 18] was 27.4 ± 5.6 h and the Tmax ([8]; human, po, read-out: tmax) was 1 h. The Tmax ([8]; human, everolimus 15 mg oral alone, dose level 1, n=3, median (range), read-out: tmax) was 1 h, the Tmax ([8]; human, everolimus 30 mg oral alone, dose level 2, n=4, median (range), read-out: tmax) was 1 h and the “Change of everolimus AUC with concomitant fluconazole” value ([8]; one patient at dose level 2 (everolimus 30 mg), concomitant medication with fluconazole) was “threefold increase”. The Toxicity-related death [9] was “No toxicity-related death”, the “Duration of sustained inhibition of S6K1 activity in peripheral blood mononuclear cells” value ([10]; single-agent everolimus at doses ⩾20 mg per week) was “at least 7 days” and the “Dose with consistent inhibition of S6K1 activity in peripheral blood mononuclear cells” value ([10]; single-agent everolimus) was at least 20 mg per week. For the same molecule, the “Dose with confirmed inhibition of S6K1 in paired tumour tissue biopsies” value [11] was at least 20 mg, the “Dose interruptions in any cycle, n (%)” value [12] was 8 (50.0) and the Objective response [13, 19] was “No objective response”. The “Tumour stabilisation reported, patients” value [13, 19] was 11 patients, the “Sustained tumour stabilisation for more than 4 months, patients” value ([13]; everolimus + paclitaxel, breast (two), ovarian (two), thyroid carcinoma (one), liposarcoma (one)) was “six” and the “Duration of tumour stabilisation” value ([13]; two patients with metastatic breast cancer at dose level 2 (everolimus 30 mg + paclitaxel)) was over 6 months.
In the case of `CC(=O)O[C@@]12CO[C@@H]1C[C@H](O)[C@@]1(C)C(=O)[C@H](O)C3=C(C)[C@@H](OC(=O)[C@H](O)[C@@H](NC(=O)OC(C)(C)C)c4ccccc4)C[C@@](O)([C@@H](OC(=O)c4ccccc4)[C@H]21)C3(C)C` [docetaxel], the “Duration of tumour stabilisation previously recorded” value [14] is listed as 3.7 months and 3.5 months.
